# Test results taken from PubChem BioAssay (NCI).
#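 Tested at 5 concentrations; 48 h exposure; 96-well plates; endpoints linearly interpolated, else capped at highest concentration. TGI denotes the concentration required for complete inhibition of growth.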
# Tests used:
# Assay in all cases: DTP human tumour cell line panel, 48 h
# CCRF-CEM leukemia = system: CCRF-CEM leukemia
# SF-268 CNS = system: SF-268 CNS
# HCT-116 colon = system: HCT-116 colon
# SNB-75 CNS = system: SNB-75 CNS
# EKVX NSCLC = system: EKVX NSCLC
# MDA-MB-435 = system: MDA-MB-435
# IGROV1 ovarian = system: IGROV1 ovarian
# UACC-62 melanoma = system: UACC-62 melanoma
# M14 melanoma = system: M14 melanoma
# OVCAR-4 ovarian = system: OVCAR-4 ovarian
# T-47D breast = system: T-47D breast
Compound,TGI (CCRF-CEM leukemia) [µM],TGI (SF-268 CNS) [µM],TGI (HCT-116 colon) [µM],TGI (SNB-75 CNS) [µM],TGI (EKVX NSCLC) [µM],TGI (MDA-MB-435) [µM],TGI (IGROV1 ovarian) [µM],TGI (UACC-62 melanoma) [µM],TGI (M14 melanoma) [µM],TGI (OVCAR-4 ovarian) [µM],TGI (T-47D breast) [µM]
COc1cc(NCc2ccc3nc(OC)c(OC)nc3c2)cc(OC)c1OC,> 100,> 100,> 100,> 100,> 100,> 100,> 100,> 100,> 100,> 100,> 100
Cn1c(NS(=O)(=O)c2ccccc2)nc2ccccc21,> 100,> 100,> 100,> 100,> 100,> 100,> 100,> 100,> 100,> 100,> 100
CC/C=C/C(=O)CC(O)(C(F)(F)F)C(F)(F)F,> 100,> 100,> 100,> 100,> 100,> 100,> 100,> 100,> 100,> 100,> 100
COc1cc(Nc2cnc3cc(F)c(F)cc3n2)cc(OC)c1,> 100,> 100,> 100,53.4,> 100,> 100,> 100,> 100,> 100,> 100,> 100
COc1cccc2c(Nc3ccc(S(=O)(=O)NC(C)=O)cc3)c3ccc([N+](=O)[O-])cc3nc12,> 100,> 93.7,> 100,> 100,> 100,> 65.2,> 86.7,> 58.3,> 100,> 100,> 100
CC(=O)OC1COC(n2c(-c3ccc(Cl)cc3)cc(-c3ccccc3)c(C#N)c2=S)C(OC(C)=O)C1OC(C)=O (stereo unspecified),> 86.1,> 39.3,> 51.7,> 100,> 100,> 62.4,> 31.6,> 31.6,> 31.6,11.1,54
Cc1cc(NCCCCCCCCCC[n+]2c(C)cc(N)c3ccccc32)c2ccccc2n1,7.43,> 39,11.7,7.71,> 100,5.86,17.3,4.17,12,> 100,12.3
C=C(Br)CN(C(C)=O)C1CCCCC1,> 100,> 100,> 100,> 100,> 100,> 100,> 100,> 100,> 100,> 100,> 100
C(=NCc1ccccc1)c1ccccc1-c1ccccc1C=NCc1ccccc1,> 10,> 10,> 10,> 10,> 10,> 10,> 10,> 10,> 10,> 10,> 10
COc1ccc(NC(C)=O)cc1C1CCC(=O)N1 (stereo unspecified),> 100,> 100,> 100,> 100,> 100,> 100,> 100,> 100,> 100,> 100,> 100
COc1ccc(C(c2c[nH]c3ccc(Br)cc23)c2c[nH]c3ccc(Br)cc23)cc1,0.436,0.631,0.349,1.54,1.49,0.42,0.803,0.689,0.7,1.25,2.67
CC1(C)CCCCCCC2OC2CCCCCC(C)(C)C1=O (stereo unspecified),> 69.4,> 100,> 100,> 100,> 100,> 100,> 100,> 100,> 100,> 100,> 100
COc1ccc(C2=C(N)c3c(OC)cccc3C2=O)cc1,> 100,> 100,> 100,> 100,> 100,> 100,> 100,> 100,> 100,> 100,> 100
CC(=O)N(CCc1ccccc1)C(C#N)c1ccc(OCCCCCCCCCCOc2ccc(C(C#N)N(CCc3ccccc3)C(C)=O)cc2)cc1 (stereo unspecified),> 100,59.7,> 100,38.3,> 100,> 100,> 100,> 100,> 100,44.2,> 100
OC(C/C(=N\N1CCCCC1)c1cccs1)(C(F)(F)F)C(F)(F)F,> 10,> 10,> 10,> 10,> 10,> 10,> 10,> 10,> 10,> 10,> 10
CN(/N=C/c1ccccn1)C1=NCCCCN1,> 100,> 100,> 100,> 100,> 100,> 100,> 100,> 100,> 100,> 100,> 100
